Data taken from US12428403B2, “N-(heterocyclyl and heterocyclylalkyl)-3-benzylpyridin-2-amine derivatives as SSTR4 agonists” (Takeda Pharmaceutical Company Limited, priority 2020, dated 2025).

Experiments:
[1] = target: T1, SSTR4 (Homo sapiens, UniProt P31391); experiment: SSTR4 I-125 somatostatin competition binding assay (CHO-K1 membranes); design: host or cells: CHO-K1; conditions: competition with I-125 labeled somatostatin, membranes from CHO-K1 overexpressing SSTR4; read-out: SSTR4 Binding pIC50 (converted)
Source text: SSTR4I-125 Somatostatin Competition Binding Assay
Membranes from CHO-K1 cells overexpressing SSTR4 are purchased from Perkin Elmer (catalog number ES-524-M400UA). […] The scintillator sheets are melted to filters using a heat block.

[2] = target: SSTR1 (Homo sapiens, UniProt P30872); experiment: biochemical;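 note: competitive binding to membranes of CHO-K1 cells overexpressing SSTR1, incubated 60 min at room temperature, radioactivity read by scintillation counting after filtration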
Method: SSTR1 I-125 Somatostatin Competition Binding Assay for Selectivity Versus SSTR1
Membranes from CHO-K1 cells overexpressing SSTR1 are purchased from Perkin Elmer (catalog number ES-520-M400UA). Test compounds are suspended in DMSO and then diluted in assay buffer (25 mM HEPES pH 7.4, 10 mM MgCl2, 1 mM CaCl2, 0.5% BSA) plus 0.4 nM I-125 labeled somatostatin (Perkin Elmer catalog number NEX389). […] Then 10 μg of SSTR1 membranes in 50 μL assay buffer are added per well. The plate is incubated for 60 minutes at room temperature. […] The contents of the assay plate are transferred to filters with a TomTech harvester and washed 5 times with 20 mM HEPES, 100 mM NaCl. […] The scintillator sheets are melted to the filters using a heat block. The filters are then read in a MicroBeta scintillation counter. Binding Ki curves are generated using Activity Base for Screening Data Management and the results are reported as pIC50.

[3] = target: T1, SSTR4; experiment: cell-based
Method: This cell-based assay measures the ability of compounds to inhibit forskolin stimulated cAMP in CHO-K1 cells overexpressing SSTR4. CHO-K1 cells overexpressing SSTR4 (CHO-SSTR4) are purchased from DiscoveRx (product code 95-0059C2). The CHO-SSTR4 cells are maintained in F12K media with 10% Fetal Bovine Serum (Hyclone), 1% Pen/Strep (Life Technologies), and 800 μg/mL G418 (Life Technologies). To perform the assay, 3000 cells are plated per well in white 384-well plate (Corning 3570) in 50 complete media and the cells are allowed to attach for 16 hours in a 37° C., 5% CO2 incubator. The next day, the culture media is removed from the cells and the cells are washed (added then removed) with Krebs Ringer Buffer (ZenBio, KRB-1000 mL). Test compounds are suspended in DMSO and diluted in stimulation buffer: Krebs Ringer Buffer plus 0.5% BSA (Roche), 300 μM IBMX (Sigma), and 350 nM forskolin (Sigma). The cells are incubated in 10 μL compound/stimulation buffer for 30 minutes at room temperature. Cellular cAMP levels are detected with a HTRF LANCE Ultra cAMP kit (Perkin Elmer, catalog number TRF0264).
The assay is performed in accordance with the manufacturer's instructions. Five μL of diluted Eu-W8044 labeled streptavidin (dilution: 1:50 in cAMP Detection Buffer) is added to each well. Then 5 μL of diluted biotin cAMP (dilution: 1:150 in cAMP Detection Buffer) is added to each well. The plates are covered and allowed to incubate for 60 minutes at room temperature on a shaker. HTRF (665 nm/615 nm) is read on a Perkin Elmer ENVISION plate reader. The pEC50 values are generated using Activity Base for Screening Data Management.
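Throughout, for EC50: CHO-K1 cells overexpressing SSTR4, reduction of forskolin-driven cAMP after 30 min compound exposure at room temperature, cAMP read by HTRF LANCE Ultra kit.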

SSTR1, sequence (P30872 whole entry): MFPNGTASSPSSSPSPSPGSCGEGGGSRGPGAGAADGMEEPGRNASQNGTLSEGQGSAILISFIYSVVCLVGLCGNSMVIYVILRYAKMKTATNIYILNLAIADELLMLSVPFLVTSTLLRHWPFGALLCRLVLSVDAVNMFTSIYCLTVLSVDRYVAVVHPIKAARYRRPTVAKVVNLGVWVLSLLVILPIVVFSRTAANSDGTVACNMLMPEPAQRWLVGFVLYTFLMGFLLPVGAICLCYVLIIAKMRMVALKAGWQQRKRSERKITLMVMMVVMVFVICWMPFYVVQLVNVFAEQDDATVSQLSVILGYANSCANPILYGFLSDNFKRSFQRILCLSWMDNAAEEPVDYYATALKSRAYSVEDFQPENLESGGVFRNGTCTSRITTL
T1 sequence (P31391 whole entry): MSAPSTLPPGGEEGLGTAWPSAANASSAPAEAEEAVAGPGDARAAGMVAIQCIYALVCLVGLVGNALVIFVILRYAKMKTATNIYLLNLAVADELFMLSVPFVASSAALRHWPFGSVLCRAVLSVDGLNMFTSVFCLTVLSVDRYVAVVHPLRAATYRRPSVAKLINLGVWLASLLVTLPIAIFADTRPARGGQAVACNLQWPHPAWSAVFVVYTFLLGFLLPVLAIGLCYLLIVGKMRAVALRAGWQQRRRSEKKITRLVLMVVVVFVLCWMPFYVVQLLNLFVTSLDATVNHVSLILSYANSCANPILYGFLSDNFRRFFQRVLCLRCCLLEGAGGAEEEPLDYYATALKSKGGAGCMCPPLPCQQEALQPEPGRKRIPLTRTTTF

IC50 [1] [nM] | IC50 [2] [nM] | EC50 [3] [nM] | Structure (SMILES)
61.7 | 11000 | 27.5 | Cc1nc(NCCN2CCC2)c(Cc2ccc(F)cc2)nc1C#N [Example 96, 5-((2-(azetidin-1-yl)ethyl)amino)-6-(4-fluorobenzyl)-3-methylpyrazine-2-carbonitrile]
151 | 12000 | 8.71 | CC(c1ccc(F)cc1)c1nccnc1NCCN1CCCC1 (stereo not drawn) [Example 119, 3-(1-(4-fluorophenyl)ethyl)-N-(2-(pyrrolidin-1-yl)ethyl)pyrazin-2-amine]
123 | 3310 | 20.9 | CC(c1ccc(F)cc1)c1nc(-c2ncco2)cnc1NCCN1CCCC1 (stereo not drawn) [Example 123, 3-(1-(4-fluorophenyl)ethyl)-5-(oxazol-2-yl)-N-(2-(pyrrolidin-1-yl)ethyl)pyrazin-2-amine]
245 | 3470 | 36.3 | CC(c1ccc(F)cc1)c1nc(-c2nccn2C)cnc1NCCN1CCCC1 (stereo not drawn) [Example 124, 3-(1-(4-fluorophenyl)ethyl)-5-(1-methyl-1H-imidazol-2-yl)-N-(2-(pyrrolidin-1-yl)ethyl)pyrazin-2-amine]
38 | 1230 | 42.7 | CC(c1ccc(F)cc1)c1nc(-c2nccs2)cnc1NCCN1CCCC1 (stereo not drawn) [Example 125, 3-(1-(4-fluorophenyl)ethyl)-N-(2-(pyrrolidin-1-yl)ethyl)-5-(thiazol-2-yl)pyrazin-2-amine]
110 | 2630 | 29.5 | Cc1cnc(-c2cnc(NCCN3CCCC3)c(C(C)c3ccc(F)cc3)n2)o1 (stereo not drawn) [Example 126, 3-(1-(4-fluorophenyl)ethyl)-5-(5-methyloxazol-2-yl)-N-(2-(pyrrolidin-1-yl)ethyl)pyrazin-2-amine]
35.5 | 2290 | 10 | Cc1cnc(-c2nc(C(C)c3ccc(F)cc3)c(NCCN3CCCC3)nc2C)o1 (stereo not drawn) [Example 129, 3-(1-(4-fluorophenyl)ethyl)-6-methyl-5-(5-methyloxazol-2-yl)-N-(2-(pyrrolidin-1-yl)ethyl)pyrazin-2-amine]
28.2 | 47900 | 1.95 | Cc1nnc(C(C)c2ccc(F)cc2)c(NCCN2CCC2)n1 (stereo not drawn) [Example 132, N-(2-(azetidin-1-yl)ethyl)-6-(1-(4-fluorophenyl)ethyl)-3-methyl-1,2,4-triazin-5-amine]
89.1 | 5010 | 16.2 | Fc1ccc(Cc2nnc(C3CC3)nc2NCCN2CCC2)cc1 [Example 138, N-(2-(azetidin-1-yl)ethyl)-3-cyclopropyl-6-(4-fluorobenzyl)-1,2,4-triazin-5-amine]
49 | 10000 | 4.27 | Cc1nnc(C(C)c2ccccc2)c(NCCN2CCC2)n1 (stereo not drawn) [Example 143, N-(2-(azetidin-1-yl)ethyl)-3-methyl-6-(1-phenylethyl)-1,2,4-triazin-5-amine]
42.7 | 15100 | 10 | Cc1cccc(Cc2nnc(C)nc2NCCN2CCC2)c1 [Example 148, N-(2-(azetidin-1-yl)ethyl)-3-methyl-6-(3-methylbenzyl)-1,2,4-triazin-5-amine]
